Data reported in patent publication US20080004253A1, “Thiazolopyrimidine modulators of TRPV1” (priority 2006, published 2008).

Assays:
rat TRPV1 = target: T1, rat TRPV1 (Rattus norvegicus, UniProt O35433); experiment: Functional assay: block of capsaicin-induced Ca2+ influx, rat assay (rTRPV1/HEK293, FLIPR); format: cell-based; conditions: rTRPV1/HEK293 cells, capsaicin challenge, Fluo-3 fluorescence; mean; > value = solubility limit in assay medium
T1 construct: expressed in transfected cells; host or cells: HEK293 (rTRPV1/HEK293), geneticin selection
T1 sequence (O35433 whole entry): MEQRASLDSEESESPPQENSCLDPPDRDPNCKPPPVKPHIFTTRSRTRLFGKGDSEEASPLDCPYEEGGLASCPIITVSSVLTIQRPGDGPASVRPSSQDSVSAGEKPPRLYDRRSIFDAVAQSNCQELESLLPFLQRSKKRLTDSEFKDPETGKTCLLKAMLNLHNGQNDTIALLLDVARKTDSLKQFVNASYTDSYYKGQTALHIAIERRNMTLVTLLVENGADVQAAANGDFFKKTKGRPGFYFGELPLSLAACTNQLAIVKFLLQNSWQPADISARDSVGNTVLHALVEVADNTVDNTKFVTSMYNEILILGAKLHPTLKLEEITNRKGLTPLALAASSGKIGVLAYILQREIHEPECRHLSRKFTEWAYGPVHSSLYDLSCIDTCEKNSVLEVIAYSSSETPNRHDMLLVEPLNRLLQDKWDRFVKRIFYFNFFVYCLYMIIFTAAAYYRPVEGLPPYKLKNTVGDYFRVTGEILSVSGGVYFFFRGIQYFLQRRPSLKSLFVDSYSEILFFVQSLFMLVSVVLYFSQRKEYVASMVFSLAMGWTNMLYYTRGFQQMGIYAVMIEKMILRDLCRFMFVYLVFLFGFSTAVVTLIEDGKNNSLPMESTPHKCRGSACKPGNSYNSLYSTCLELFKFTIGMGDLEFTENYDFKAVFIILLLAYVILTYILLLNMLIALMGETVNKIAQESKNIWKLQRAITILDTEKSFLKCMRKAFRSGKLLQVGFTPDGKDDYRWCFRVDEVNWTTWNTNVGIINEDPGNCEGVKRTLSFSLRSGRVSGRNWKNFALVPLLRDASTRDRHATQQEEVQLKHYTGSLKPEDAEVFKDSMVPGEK
Description: (§1) Functional assay: block of capsaicin-induced Ca^2+ influx
(§2) HEK293 cells were transfected with human TRPV1 cloned in pcDNA3.1zeo(+) using the Effectene non-liposomal lipid based transfection kit (Qiagen) (hTRPV1/HEK293). hTRPV1/HEK293 cells were routinely grown as monolayers under selection in zeocin (200 μg/mL; Invitrogen) in Dulbecco's Modified Eagle Medium (DMEM, Gibco BRL) supplemented with 10% fetal bovine serum, and penicillin/streptomycin (50 units/mL) in 5% CO2 at 37° C. Cells were passaged frequently, every 3-5 days, to avoid overgrowth, depletion of essential medium components, or acidic medium exposure. Cells were passaged using a brief wash in 0.05% trypsin with 1 mM EDTA, followed by dissociation in divalent-free phosphate-buffered saline (Hyclone #SH30028.02). […] The assay buffer was composed of 130 mM NaCl, 2 mM KCl, 2 mM MgCl2, 10 mM HEPES, 5 mM glucose, and either 2 mM or 20 μM CaCl2. On the day of the experiment, the culture medium was replaced with 2 mM calcium assay buffer using an automated plate washer (ELx405; Biotek, VT). […] After loading the cells, the dye solution was replaced with 50 μL/well of 20 μM calcium assay buffer using the ELx405 plate washer. Test compounds (50 μL/well) were added to the plate and incubated for 30 min. […] The IC50 values were determined. […] The contents of the wells were mixed 3 times (40 μL mix volume) immediately after the additions were made. Concentration-dependence of block was determined by exposing each well of cells in duplicate rows of a 96-well plate to a serial dilution of test compound. The concentration series usually started at 10 μM with a three-fold serial decrement in concentration. The magnitude of the capsaicin response was determined by measuring the change in fluo3 fluorescence before and 100 seconds after the addition of the agonist. Data were analyzed using a non-linear regression program (Origin; OriginLab, MA).
This assay was performed similarly to the human assay described above, but using HEK293 cells transfected with rat TRPV1 (rTRPV1/HEK293).
(§3) IC50 values shown are the average (mean) of the results obtained. […] Compounds were tested in either the free base or trifluoroacetic acid salt form.

human TRPV1 = target: T2, human TRPV1 (Homo sapiens, UniProt Q8NER1); experiment: Functional assay: block of capsaicin-induced Ca2+ influx, human assay (hTRPV1/HEK293, FLIPR); format: cell-based; conditions: hTRPV1/HEK293 cells, 150 nM capsaicin challenge, Fluo-3 fluorescence; mean; > value = solubility limit in assay medium
T2 construct: expressed in transfected cells; host or cells: HEK293 (hTRPV1/HEK293), zeocin selection
T2 sequence (Q8NER1 whole entry): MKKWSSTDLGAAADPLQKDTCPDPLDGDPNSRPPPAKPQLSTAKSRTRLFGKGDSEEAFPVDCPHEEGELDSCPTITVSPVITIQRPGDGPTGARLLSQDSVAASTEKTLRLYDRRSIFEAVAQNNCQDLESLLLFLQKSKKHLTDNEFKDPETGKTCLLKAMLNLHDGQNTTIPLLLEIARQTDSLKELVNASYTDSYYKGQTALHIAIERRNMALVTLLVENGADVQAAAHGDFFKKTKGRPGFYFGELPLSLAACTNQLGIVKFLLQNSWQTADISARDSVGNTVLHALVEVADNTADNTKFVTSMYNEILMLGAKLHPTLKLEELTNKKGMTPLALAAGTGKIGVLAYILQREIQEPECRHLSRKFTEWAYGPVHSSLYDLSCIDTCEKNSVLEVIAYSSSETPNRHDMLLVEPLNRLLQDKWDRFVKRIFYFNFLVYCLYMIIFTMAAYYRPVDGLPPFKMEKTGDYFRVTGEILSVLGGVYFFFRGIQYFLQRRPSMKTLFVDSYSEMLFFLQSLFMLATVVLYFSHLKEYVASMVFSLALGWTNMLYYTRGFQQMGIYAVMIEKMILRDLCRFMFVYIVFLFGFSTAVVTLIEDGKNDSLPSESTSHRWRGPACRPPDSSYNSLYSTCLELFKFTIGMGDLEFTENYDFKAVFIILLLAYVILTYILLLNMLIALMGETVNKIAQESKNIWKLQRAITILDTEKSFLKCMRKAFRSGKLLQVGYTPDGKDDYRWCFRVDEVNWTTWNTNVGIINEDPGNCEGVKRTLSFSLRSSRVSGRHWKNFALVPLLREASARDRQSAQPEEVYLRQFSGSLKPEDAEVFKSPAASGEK
Description: as §1, §2, §3

| Compound | IC50 (rat TRPV1) [nM] | IC50 (human TRPV1) [nM] |
| --- | --- | --- |
| Cc1noc(C)c1Nc1nc2c(Nc3ccc(C(F)(F)F)nc3)ncnc2s1 [Example 24, N^2-(3,5-Dimethyl-isoxazol-4-yl)-N^7-(6-trifluoromethyl-pyridin-3-yl)-thiazolo[5,4-d]pyrimidine-2,7-diamine] | 709 | 2360 |
| FC(F)(F)c1ccc(Nc2nc(NCC3CC3)nc3sc(Nc4c(Cl)cccc4Cl)nc23)cc1 [Example 62, N^5-Cyclopropylmethyl-N^2-(2,6-dichloro-phenyl)-N^7-(4-trifluoromethyl-phenyl)-thiazolo[5,4-d]pyrimidine-2,5,7-triamine] | 4 | 20 |
| FC(F)(F)c1ccc(Nc2ncnc3sc(Nc4c(Cl)cccc4Cl)nc23)cc1 [Example 1, N^2-(2,6-Dichloro-phenyl)-N^7-(4-trifluoromethyl-phenyl)-thiazolo[5,4-d]pyrimidine-2,7-diamine] | 3 | 12 |
| Cc1cccc(C)c1Nc1nc2c(Nc3ccc(S(=O)(=O)N4CCOCC4)cc3)ncnc2s1 [Example 91, N^2-(2,6-Dimethyl-phenyl)-N^7-[4-(morpholine-4-sulfonyl)-phenyl]-thiazolo[5,4-d]pyrimidine-2,7-diamine] | 1 | 7 |
| Cc1cccc(C)c1Nc1nc2c(Nc3ccc(S(=O)(=O)C(C)C)cc3)ncnc2s1 [Example 122, N^2-(2,6-Dimethyl-phenyl)-N^7-[4-(Propane-2-sulfonyl)-phenyl]-thiazolo[5,4-d]pyrimidine-2,7-diamine] | 129 | 87 |
| CS(=O)(=O)c1ccccc1Nc1nc2c(Nc3ccc(C(F)(F)F)nc3)ncnc2s1 [Example 199, N^2-(2-Methanesulfonyl-phenyl)-N^7-(6-trifluoromethyl-pyridin-3-yl)-thiazolo[5,4-d]pyrimidine-2,7-diamine] | 1080 | 2150 |
| Cc1nc(Nc2ccc(C(F)(F)F)nc2)c2nc(Nc3c(C)cccc3C)sc2n1 [Example 246, N^2-(2,6-Dimethyl-phenyl)-5-methyl-N^7-(6-trifluoromethyl-pyridin-3-yl)-thiazolo[5,4-d]pyrimidine-2,7-diamine] | 22 | 18 |
| Cc1cccc(C)c1Nc1nc2c(Nc3ccc(NS(C)(=O)=O)cc3)ncnc2s1 [Example 175, N-{4-[2-(2,6-Dimethyl-phenylamino)-thiazolo[5,4-d]pyrimidin-7-ylamino]-phenyl}-methanesulfonamide] | > 20000 | > 20000 |
| CS(=O)(=O)c1ccc(Nc2ncnc3sc(Nc4ccccc4Cl)nc23)cc1 [Example 126, N^2-(2-Chloro-phenyl)-N^7-(4-methanesulfonyl-phenyl)-thiazolo[5,4-d]pyrimidine-2,7-diamine] | 30 | 129 |
| FC(F)(F)c1ccc(Nc2ncnc3sc(Nc4ccccc4Cl)nc23)cn1 [Example 220, N^2-(2-Chlorophenyl)-N^7-[6-(trifluoromethyl)pyridin-3-yl][1,3]thiazolo[5,4-d]pyrimidine-2,7-diamine] | 38 | 43 |
| Cc1cccc(C)c1Nc1nc2c(Nc3ccc(C#N)c(Cl)c3)ncnc2s1 [Example 142, 2-Chloro-4-[2-(2,6-dimethyl-phenylamino)-thiazolo[5,4-d]pyrimidin-7-ylamino]-benzonitrile] | 231 | 394 |
| Cc1nc(Nc2ccc(C(C)(C)O)cc2)c2nc(Nc3c(Cl)cccc3Cl)sc2n1 [Example 74, 2-{4-[2-(2,6-Dichloro-phenylamino)-5-methyl-thiazolo[5,4-d]pyrimidin-7-ylamino]-phenyl}-propan-2-ol] | 0.05 | 1 |
| O=S(=O)(c1ccc(Nc2ncnc3sc(Nc4c(Cl)cccc4Cl)nc23)cc1)N1CCOCC1 [Example 80, N^2-(2,6-Dichloro-phenyl)-N^7-[4-(morpholine-4-sulfonyl)-phenyl]-thiazolo[5,4-d]pyrimidine-2,7-diamine] | 1 | 2 |
| CSc1ccccc1Nc1nc2c(Nc3ccc(C(F)(F)F)cc3)ncnc2s1 [Example 196, N^2-(2-Methylsulfanyl-phenyl)-N^7-(4-trifluoromethyl-phenyl)-thiazolo[5,4-d]pyrimidine-2,7-diamine] | 37 | 64 |

The remaining compounds from weak to strong by IC50 (rat TRPV1), led by results:

| IC50 (rat TRPV1) [nM] | IC50 (human TRPV1) [nM] | Compound |
| --- | --- | --- |
| 3200 | 820 | COC(=O)c1cc(Cl)c(Nc2nc3c(Nc4ccc(C(F)(F)F)cc4)ncnc3s2)c(Cl)c1 [Example 241, 3,5-Dichloro-4-[7-(4-trifluoromethyl-phenylamino)-thiazolo[5,4-d]pyrimidin-2-ylamino]-benzoic acid methyl ester] |
| 319 | 646 | OCC1CN(c2nc(Nc3ccc(C(F)(F)F)cc3)c3nc(Nc4c(Cl)cccc4Cl)sc3n2)CCO1 (racemic) [Example 146, (racemic)-{4-[2-(2,6-Dichloro-phenylamino)-7-(4-trifluoromethyl-phenylamino)-thiazolo[5,4-d]pyrimidin-5-yl]-morpholin-2-yl}-methanol] |
| 221 | 431 | Cc1cccc(C)c1Nc1nc2c(Nc3ccc(F)cc3)ncnc2s1 [Example 144, N^2-(2,6-Dimethyl-phenyl)-N^7-(4-fluoro-phenyl)-thiazolo[5,4-d]pyrimidine-2,7-diamine] |
| 205 | 1220 | Cc1nc(Nc2ccc(N(C)S(C)(=O)=O)cc2)c2nc(Nc3c(Cl)cccc3Cl)sc2n1 [Example 152, N-{4-[2-(2,6-Dichloro-phenylamino)-5-methyl-thiazolo[5,4-d]pyrimidin-7-ylamino]-phenyl}-N-methyl-methanesulfonamide] |
| 61 | 154 | NCc1cc(Cl)c(Nc2nc3c(Nc4ccc(C(F)(F)F)cc4)ncnc3s2)c(Cl)c1 [Example 240, N^2-(4-Aminomethyl-2,6-dichloro-phenyl)-N^7-(4-trifluoromethyl-phenyl)-thiazolo[5,4-d]pyrimidine-2,7-diamine] |
| 48 | 225 | Cc1cccc(C)c1Nc1nc2c(Nc3ccc(I)cc3)ncnc2s1 [Example 137, N^2-(2,6-Dimethyl-phenyl)-N^7-(4-iodo-phenyl)-thiazolo[5,4-d]pyrimidine-2,7-diamine] |
| 32 | 123 | FC(F)(F)c1ccc(Nc2nc(NCCN3CCCCC3)nc3sc(Nc4c(Cl)cccc4Cl)nc23)cc1 [Example 180, N^2-(2,6-Dichloro-phenyl)-N^5-(2-piperidin-1-yl-ethyl)-N^7-(4-trifluoromethyl-phenyl)-thiazolo[5,4-d]pyrimidine-2,5,7-triamine] |
| 32 | 31 | CSc1ccc(Nc2nc(C)nc3sc(Nc4c(Cl)cccc4Cl)nc23)cn1 [Example 185, N^2-(2,6-Dichloro-phenyl)-5-methyl-N^7-(6-methylsulfanyl-pyridin-3-yl)-thiazolo[5,4-d]pyrimidine-2,7-diamine] |
| 15 | 7 | Cc1nc(Nc2ccc(S(=O)(=O)C(F)(F)F)cc2)c2nc(Nc3c(C)cccc3C)sc2n1 [Example 90, N^2-(2,6-Dimethyl-phenyl)-5-methyl-N^7-(4-trifluoromethanesulfonyl-phenyl)-thiazolo[5,4-d]pyrimidine-2,7-diamine] |
| 9 | 30 | FC(F)(F)c1ccc(Nc2ncnc3sc(Nc4c(Cl)cccc4C(F)(F)F)nc23)cc1 [Example 18, N^2-(2-Chloro-6-trifluoromethyl-phenyl)-N^7-(4-trifluoromethyl-phenyl)-thiazolo[5,4-d]pyrimidine-2,7-diamine] |
